Source: the Bradley open melting point set (2014)
Several values for one entry are separate records, joined by “and”; a condition that tells them apart may be missing. Identical values can stand only once.

melting point	SMILES
269 °C	O=C1OC(=O)C23Cc4ccccc4CC12Cc1ccccc1C3 (stereo not drawn)
30 °C	COC(=O)CCCCCCCCC(=O)OC [dimethyl_sebacate]
50 °C	O=[N+]([O-])c1ccccc1I [1-iodo-2-nitrobenzene]
82 °C	COc1cc(C=O)ccc1O [vanillin]
156 °C	O=C(O)c1c(F)c(F)c(F)c(F)c1C(=O)O [tetrafluorophthalic acid]
6 °C	CCCCCCCCCCCCCCCC(C)C [2-methylheptadecane]
123 °C	O=Cc1c(-c2ccccc2)nc2n1CCS2 [2,3-dihydro-6-phenylimidazo[2,1-b]thiazole-5-carboxaldehyde]
32 °C	CSCC[C@H](N)CO [L-methioninol]
79 °C	CC(C)Oc1ccc(Nc2ccccc2)cc1 [4-Isopropoxy-N-phenylaniline]
70 °C	c1ccc(CN(Cc2ccccc2)c2ccccc2)cc1 [N,N-dibenzylaniline]
7 °C	ClB(Cl)c1ccccc1 [dichlorophenylborane]
127 °C	c1ccc(N(c2ccccc2)c2ccccc2)cc1 [triphenylamine]
180 °C	O=C1CCC(=O)N1Br [n-bromosuccinimide]
-81 °C	CCC=O [propionaldehyde]
21 °C	COC(=O)c1cccc(Cl)c1 [methyl 3-chlorobenzoate]
-43.5 °C	OCC(F)(F)F [2,2,2-Trifluoroethanol]
-5 °C	CCCCCCCCC(C)O (stereo not drawn) [2-decanol] [listing 1 of 2 here]
228 °C	O=C(O)/C(=C/c1ccccc1)c1ccc([N+](=O)[O-])cc1 [(E)-2-(4-nitrophenyl)-3-phenylpropenoic acid]
154 °C	BrC(c1ccccc1)(c1ccccc1)c1ccccc1 [bromotriphenylmethane]
-84 °C	CCOC(C)=O [ethyl acetate]
-2 °C	CCCCCCCCC(C)O (stereo not drawn) [2-decanol] [listing 2 of 2 here]
64 °C	COC(=O)c1ccc(CC#N)cc1 [methyl_p-cyanomethyl_benzoate]
203 °C	O=c1c(O)c(-c2ccccc2O)oc2ccccc12 [2',3-dihydroxyflavone]
107 °C	COC(=O)c1cc(C)[nH]n1 [1H-pyrazole-3-carboxylic acid, 5-methyl-, methyl ester]
170 °C	CS(=O)c1ccc(B(O)O)cc1 (stereo not drawn) [4-(methylsulfinyl)benzeneboronic acid]

melting point	SMILES
86 °C	O=C(O)c1cc(F)c(F)c(F)c1F [2,3,4,5-tetrafluorobenzoic acid]
260 °C	OC1=NC(=Nc2ccccc2)S/C1=C\c1ccccc1 [OSM-S-55]
262 °C	O=C1OC(c2ccc(O)cc2)(c2ccc(O)cc2)c2ccccc21 [Phenolphthalein]
-63 °C	CCN1CCOCC1 [4-Ethylmorpholine]
84 °C	Cc1cccc2cc[nH]c12 [7-methylindole]
96 °C	CCOC(=O)Cc1c(C)n(C(=O)c2ccc(Cl)cc2)c2ccc(OC)cc12 [Indomethacin ethyl ester]
180 °C	C/C=C/C(=O)N(CCCCCCC)C(C(=O)NC(C)(C)C)c1cc2ccccc2c2ccccc12 (stereo not drawn) [Ugi product 148B]
190 °C	NS(=O)(=O)c1ccccc1Cl [2-chlorobenzenesulfonamide]
66 °C	CCCCNC(=S)NCCCC [N,N'-di-n-butylthiourea]
292 °C	Nc1ccc(/N=N/c2ccc(/N=N/c3ccc(/N=N/c4ccc(/N=N/c5ccc(N)cc5)cc4)cc3)cc2)cc1
128 °C	O=C(O)c1ccc2c(c1)no[n+]2[O-] [benzofuroxan-5-carboxylic acid]
-68 °C	Cc1ccc(C(C)C)cc1 [1-methyl-4-isopropylbenzene]
264 °C	O=c1ncn2nc(Sc3ccccc3)ccc2c1-c1c(Cl)cccc1Cl
134 °C	Nc1ccc(CCC(=O)O)cc1 [3-(4-aminophenyl)propionic acid]
-30 °C	OCCNc1ccccc1 [N-phenylethanolamine]
37.5 °C	O=C(c1ccccc1)c1c(F)c(F)c(F)c(F)c1F [(Pentafluorophenyl)(phenyl)methanone]
82 °C	c1ccc2ccccc2c1 [Naphthalene]
15 °C	Oc1ccccc1F [2-fluorophenol]
61 °C	OC1COC2C(O)COC12 (stereo not drawn) [isosorbide]
76 °C	COc1ccc(C=CC(=O)c2ccccc2)cc1 [Chalcone, 4-methoxy-]
101 °C	c1ccc2c(c1)Cc1ccccc1O2 [9H-Xanthene]
84 °C	O=[N+]([O-])c1cc(Br)ccc1Br [1,4-dibromo-2-nitrobenzene]
37 °C	COC(=O)c1cccc(N=C=O)c1 [3-(methoxycarbonyl)phenyl isocyanate]
29 °C	Cc1ccc(Cc2ccc(C)cc2)cc1 [4,4'-dimethyldiphenylmethane]
183 °C	CO[C@H]1C=CO[C@@]2(C)Oc3c(C)c(O)c4c(O)c(c(/C=N/N5CCN(C)CC5)c(O)c4c3C2=O)NC(=O)C(C)=CC=C[C@H](C)[C@H](O)[C@@H](C)[C@H](O)[C@H](C)[C@H](OC(C)=O)[C@@H]1C [Rifampin]

melting point	SMILES
181 °C	O=C1NC(=O)c2cc([N+](=O)[O-])ccc21 [5-Nitro-1H-isoindole-1,3(2H)-dione]
106 °C	COC(=O)c1cc(OC)c(O)c(OC)c1 [methyl 3,5-dimethoxy-4-hydroxybenzoate]
87 °C	COc1ccc2cc(C(C)CO)ccc2c1 (stereo not drawn) [Naproxol]
47 °C	O=Cc1ccc(CO)cc1 [p-hydroxymethyl_benzaldehyde]
55 °C	Clc1cc(Cl)c(I)c(Cl)c1 [1,3,5-trichloro-2-iodobenzene]
12 °C	B1Oc2ccccc2O1 [catecholborane]
152 °C	Fc1nc(Cl)c2nc[nH]c2n1 [6-chloro-2-fluoropurine]
74.5 °C	CCCCCCSc1cc(N(NC(=O)OC(C)(C)C)C(=O)OC(C)(C)C)cc(SCCCCCC)c1SCCCCCC
110 °C	O=C1c2ccccc2C(C2=CCCCC2)N1Cc1ccccc1 (stereo not drawn) [2-Benzyl-3-cyclohexenylisoindolin-1-one]
0 °C and -2 °C	CCCCCCCCCCC=O [undecanal]
145 °C	CC(=O)c1ccc(B(O)O)s1 [5-acetylthiophene-2-boronic acid]
208 °C	O=C4\C=C2/[C@]([C@H]1CC[C@@]3([C@@](O)(C(=O)CO)CC[C@H]3[C@@H]1CC2)C)(C)CC4 [cortexolone]
117 °C	N#Cc1ccc(C2CCCc3cncn32)cc1 (stereo not drawn) [fadrozole]
-43 °C	CCOC(=O)CC(C)=O [ethyl_acetoacetate]
228 °C	O=C(O)[C@@H]1CCCN1 [L-Proline]
4 °C	COC(=O)OC [dimethyl carbonate]
0 °C	CCCCCCCCCCCCI [1-iodododecane]
107 °C	COC(=O)c1ccc(N)c(N)c1 [methyl 3,4-diaminobenzoate]
255 °C	C[C@]12CC[C@@H]3c4ccc(O)cc4CC[C@H]3[C@@H]1CCC2=O [estrone]
222 °C	CON=C(/c1ccco1)C(=O)N[C@@H]3C(=O)N2C(=C(COC(N)=O)CS[C@@H]23)C(=O)O [Cefuroxime]
160 °C	COc1ccc(C=O)cc1B(O)O [5-formyl-2-methoxybenzeneboronic acid]
-68 °C	CCCCOCCOCCO [diethylene glycol mono-n-butyl ether]
77 °C	CC(C)Cc1ccc(C(C)C(=O)O)cc1 (stereo not drawn) [4-isobutyl-alpha-methylphenylacetic acid]
1 °C	Clc1ccccc1I [1-chloro-2-iodobenzene]
221 °C	O=C(O)[C@@H]1CCCN1 [proline]

SMILES	melting point
Oc1c(F)c(F)c(F)c(F)c1F [pentafluorophenol]	34 °C
O=C1c3c(N(\C=C1\C(=O)O)CC)cc2OCOc2c3 [oxolinic acid]	315 °C
CC[C@@H](C(=O)[C@@H](C)[C@@H](O)[C@H](C)[C@@H]1O[C@@H]([C@@H](CC)C(=O)O)CC[C@@H]1C)[C@H]1O[C@]2(C=C[C@@H](O)[C@]3(CC[C@@](C)([C@H]4CC[C@](O)(CC)[C@H](C)O4)O3)O2)[C@H](C)C[C@@H]1C	113 °C
CCC(C)Br (stereo not drawn) [2-bromobutane]	-112 °C
N#Cc1ccncc1 [4-cyanopyridine]	78 °C
CCN(CC)CCOC(=O)C(O)(c1ccccc1)c1ccccc1 [benactyzin]	51 °C
ClC(Cl)C(Cl)Cl [1,1,2,2-tetrachloroethane]	-43 °C
O=C1CN=C(c2ccccc2)c2cc(Cl)ccc2N1CC(F)(F)F [halazepam]	164 °C
CC12CCC3C(CCC4CC(CC(=O)O)=CCC43C)C1CCC2=O (stereo not drawn) [(17-oxoandrost-2-en-3-yl)acetic acid]	177 °C
N#CCc1ccc(O)cc1 [4-hydroxyphenylacetonitrile]	69 °C
Clc1cc(Cl)c(Cl)cc1Cl [1,2,4,5-Tetrachlorobenzene]	139 °C
COc1cc(C(=O)Cl)cc(OC)c1OC [3,4,5-trimethoxybenzoyl chloride]	80 °C
CCCC=NO [butyraldoxime]	-29 °C
COc1ccc2c3c1O[C@H]1[C@@H](O)C=C[C@H]4[C@@H](C2)N(C)CC[C@@]341 [Codeine]	155 °C
Cc1sc2ccccc2c1CC1=NCCN1 [metizoline]	156 °C
CCOC(=O)C1(c2ccccc2)CCN(C)CC1 [Meperidine]	188 °C
c1ccncc1 [Pyridine]	-42 °C
O=C(CCl)N1CCOCC1 [4-(chloroacetyl)morpholine]	29 °C
CCCBr [1-bromopropane]	-110 °C
COc1ccccc1[N+](=O)[O-] [2-nitroanisole]	10 °C
CC(=O)c1ccc(N2CCNCC2)cc1 [4'-(1-piperazinyl)acetophenone]	96 °C
CN1CCC2=C(C1)C(c1ccccc1)c1ccccc12 (stereo not drawn) [phenindamine]	91 °C
O=C(Cl)C(Cl)(Cl)Cl [trichloroacetyl chloride]	-56.9 °C and -57 °C
